Each structure is given as a SMILES string. Like-named read-outs stand apart in the source and are kept apart here.

Holding throughout (format): cell-based
The subject of one assay is UM 92.1 cell line. Description: 72 hr CellTiter-Glo cell proliferation assay, 92.1. The following applies: for IC50: 92.1 cell line, 72 hr CTG, read-out: IC50 single agent activity. The procedure: (§1) Next, luminescence was recorded using the plate reader.
The percent growth inhibition and excess inhibition were analysed using the Chalice software (CombinatoRx, Cambridge Mass.). […] All remaining points in the grids display results from a combination of the two inhibitors that correspond to the single agent concentrations denoted on the two axes. Data analysis of cell proliferation was performed using Chalice Analyser as described in (Lehar et al. 2009). Excess inhibition was calculated using the Loewe synergy model which measures the effect on growth relative to what would be expected if two drugs behave in a dose additive manner. Positive numbers represent areas of increasing synergy.
In general terms: In ATP-based viability assays light output follows the ATP content of the culture.

In another assay the test system is Mel202 UM cell line. Description: 72 hr CellTiter-Glo cell proliferation assay, Mel202. The conditions noted are these: read-out: IC50 single agent activity. The procedure: as §1
The test system of another assay is Mel285 UM cell line. Description: 72 hr CellTiter-Glo cell proliferation assay, Mel285. The following applies: read-out: IC50 single agent activity. On the procedure: as §1
Another assay has as its system Mel270 UM cell line. As to the kind of experiment: 72 hr CellTiter-Glo cell proliferation assay, Mel270. The conditions noted are these: read-out: IC50 single agent activity. On the procedure: as §1
Another assay relates to OMM2.5 UM cell line. Description: 72 hr CellTiter-Glo cell proliferation assay, OMM2.5. The conditions noted are these: read-out: IC50 single agent activity. On the procedure:
as §1

A word on the IC50: it is the concentration that inhibits the measured activity by half. As for `COc1cc2c(cc1OC(C)C)[C@H](c1ccc(Cl)cc1)N(c1ccc(N(C)C[C@H]3CC[C@H](N4CCN(C)C(=O)C4)CC3)cc1)C(=O)C2` [Compound A, (S)-1-(4-Chloro-phenyl)-7-isopropoxy-6-methoxy-2-(4-{methyl-[4-(4-methyl-3-oxo-piperazin-1-yl)-trans-cyclohexylmethyl]-amino}-phenyl)-1,4-dihydro-2H-isoquinolin-3-one], the half-inhibitory concentration (IC50) in the assay with UM 92.1 cell line is 667 nM; in the assay on Mel202 UM cell line (Mel202 cell line, 72 hr CTG), 401 nM; in the assay with Mel285 UM cell line (Mel285 cell line, 72 hr CTG), 1260 nM; in the assay with Mel270 UM cell line (Mel270 cell line, 72 hr CTG), 362 nM; with OMM2.5 UM cell line (OMM2.5 cell line, 72 hr CTG), 2570 nM.

On to `COc1ncc(-c2nc3c(n2C(C)C)[C@H](c2ccc(Cl)cc2)N(c2cc(Cl)cn(C)c2=O)C3=O)c(OC)n1` [Compound B, (S)-5-(5-Chloro-1-methyl-2-oxo-1,2-dihydro-pyridin-3-yl)-6-(4-chloro-phenyl)-2-(2,4-dimethoxy-pyrimidin-5-yl)-1-isopropyl-5,6-dihydro-1H-pyrrolo[3,4-d]imidazol-4-one], for which the IC50 in the assay on UM 92.1 cell line came out at 86 nM; in the assay on Mel202 UM cell line (Mel202, 72 h), 60 nM; in the assay on Mel285 UM cell line (72 h), 167 nM; with Mel270 UM cell line (72 h) it was 34 nM; with OMM2.5 UM cell line (72 h), 249 nM.

For `CC1(N)CCN(c2cccnc2NC(=O)c2nc(-c3ncccc3C(F)(F)F)cnc2N)CC1` [Compound D, 3-amino-N-(3-(4-amino-4-methylpiperidin-1-yl)pyridin-2-yl)-6-(3-(trifluoromethyl)pyridin-2-yl)pyrazine-2-carboxamide], in the assay with UM 92.1 cell line (one UM cell line, single agent), the “efficacy as single agent compared with the other PKC inhibitor” value was “more effective as a single agent”.

Source of the values: patent US20200246331A1, “Pharmaceutical combinations and their use” (Novartis AG, priority 2015, published 2020).
